PubChem BioAssay AID435010 (Broad Institute, 2010)
Results filed as inconclusive are left out. Activity calls are given as the source filed them. The rule behind the calls is not given here.

Target: Protein RecA (Mycobacterium tuberculosis (strain ATCC 25618 / H37Rv)) (UniProt P9WHJ3)
Assay: Inhibitors of Mycobacterium tuberculosis RecA intein splicing, fluorescence, dose retest (AID 435010)
Details: cell-free RecA-intein splicing

Sequence of Protein RecA (Mycobacterium tuberculosis (strain ATCC 25618 / H37Rv)) (P9WHJ3 whole entry, looked up): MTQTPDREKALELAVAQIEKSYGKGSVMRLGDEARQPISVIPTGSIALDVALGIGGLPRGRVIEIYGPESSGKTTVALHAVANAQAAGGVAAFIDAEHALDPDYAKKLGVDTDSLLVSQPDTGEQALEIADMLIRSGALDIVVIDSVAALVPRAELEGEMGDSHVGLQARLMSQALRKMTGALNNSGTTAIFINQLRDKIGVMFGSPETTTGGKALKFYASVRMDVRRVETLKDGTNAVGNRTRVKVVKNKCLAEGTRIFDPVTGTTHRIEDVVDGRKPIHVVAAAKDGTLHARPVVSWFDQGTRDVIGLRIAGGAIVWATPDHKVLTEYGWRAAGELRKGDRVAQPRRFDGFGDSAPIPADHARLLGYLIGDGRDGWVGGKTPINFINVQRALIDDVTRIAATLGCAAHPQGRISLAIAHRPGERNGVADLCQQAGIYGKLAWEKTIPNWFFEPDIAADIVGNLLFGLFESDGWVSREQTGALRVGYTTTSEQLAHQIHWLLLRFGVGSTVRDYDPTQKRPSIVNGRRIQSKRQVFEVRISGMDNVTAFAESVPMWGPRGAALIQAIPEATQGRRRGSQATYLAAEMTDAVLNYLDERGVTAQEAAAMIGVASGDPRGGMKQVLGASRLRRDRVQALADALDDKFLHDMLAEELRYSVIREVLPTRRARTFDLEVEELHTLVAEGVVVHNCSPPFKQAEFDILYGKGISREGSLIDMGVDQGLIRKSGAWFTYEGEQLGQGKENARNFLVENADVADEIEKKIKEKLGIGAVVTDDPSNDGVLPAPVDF

Which EC50 does the source give for N[C@@H]1CCCC[C@H]1N.O=C(O)C(=O)O.[Pt] here?
The EC50 was 32.5 µM.

How did the EC50 turn out when O=C(CCCN1C(=O)/C(=C/c2ccccc2)SC1=S)Nc1ccc(O)cc1 was run?
Its EC50 is > 38 µM (inactive).

Which EC50 does the source give for CC1=NN(Cc2ccccc2)C(=O)/C1=C\c1ccc(N(C)C)cc1 here?
The EC50 was > 38 µM (inactive).
